Test results from ChEMBL document CHEMBL1909046, “DrugMatrix in vitro pharmacology data”.

Key:
[1] = biological target: Sodium-dependent dopamine transporter (Homo sapiens, UniProt Q01959); test: DRUGMATRIX: Dopamine Transporter radioligand binding (ligand: [125I] RTI-55); assay type: cell membranes, CHO-K1, Membrane; conditions: cho-k1; Not Active = under 50% inhibition at 10 µM
[2] = DRUGMATRIX: beta-Lactamase enzyme inhibition (substrate: Nitrocefin); design: species or system Bacillus cereus; conditions: Not Active = under 50% inhibition at 10 µM
[3] = biological target: Cytochrome P450 2C9 (Homo sapiens, UniProt P11712); conditions: bti-tn-5b1-4; note: in other assays of this panel Not Active means under 50% inhibition at 10 µM
Sequence of Cytochrome P450 2C9 (P11712 whole entry): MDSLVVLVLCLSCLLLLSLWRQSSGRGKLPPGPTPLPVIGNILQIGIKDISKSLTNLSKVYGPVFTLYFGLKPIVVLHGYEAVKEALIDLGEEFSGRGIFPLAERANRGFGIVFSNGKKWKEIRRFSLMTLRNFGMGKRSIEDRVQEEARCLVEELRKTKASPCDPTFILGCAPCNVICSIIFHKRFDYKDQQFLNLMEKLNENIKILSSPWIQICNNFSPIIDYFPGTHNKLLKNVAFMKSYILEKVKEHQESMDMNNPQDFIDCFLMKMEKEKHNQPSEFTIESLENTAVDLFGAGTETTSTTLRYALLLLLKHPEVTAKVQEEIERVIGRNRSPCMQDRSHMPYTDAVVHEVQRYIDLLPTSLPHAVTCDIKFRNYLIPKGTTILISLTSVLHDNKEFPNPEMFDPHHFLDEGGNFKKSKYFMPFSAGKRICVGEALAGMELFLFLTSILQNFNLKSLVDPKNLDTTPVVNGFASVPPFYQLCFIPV

[4] = biological target: Cytochrome P450 2C19 (Homo sapiens, UniProt P33261); conditions: bti-tn-5b1-4; note: in other assays of this panel Not Active means under 50% inhibition at 10 µM
Sequence of Cytochrome P450 2C19 (P33261 whole entry): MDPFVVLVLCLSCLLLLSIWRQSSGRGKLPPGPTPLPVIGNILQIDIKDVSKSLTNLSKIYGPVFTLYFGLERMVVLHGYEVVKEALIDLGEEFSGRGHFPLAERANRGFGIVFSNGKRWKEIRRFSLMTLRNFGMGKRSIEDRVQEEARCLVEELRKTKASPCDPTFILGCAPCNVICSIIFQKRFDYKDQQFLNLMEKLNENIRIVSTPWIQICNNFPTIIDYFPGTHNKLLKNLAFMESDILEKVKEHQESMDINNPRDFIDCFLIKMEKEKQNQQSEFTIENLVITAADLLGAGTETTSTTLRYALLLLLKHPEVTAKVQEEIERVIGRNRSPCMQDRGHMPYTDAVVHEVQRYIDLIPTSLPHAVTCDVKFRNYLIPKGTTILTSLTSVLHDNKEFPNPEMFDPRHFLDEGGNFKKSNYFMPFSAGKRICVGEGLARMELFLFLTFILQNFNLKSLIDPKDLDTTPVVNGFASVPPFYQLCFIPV

[5] = DRUGMATRIX: Glutamate, NMDA, Agonism radioligand binding (ligand: [3H] CGP-39653); assay type: cell membranes, Rattus norvegicus, Wistar, Cerebral cortex, Membrane; conditions: Not Active = under 50% inhibition at 10 µM
[6] = DRUGMATRIX: Glutamate, Kainate radioligand binding (ligand: [3H] Kainic acid); assay type: cell membranes, Rattus norvegicus, Wistar, Brain, Membrane; conditions: Not Active = under 50% inhibition at 10 µM
[7] = biological target: T1, Estrogen receptor (Homo sapiens, UniProt P03372); conditions: sf9; note: in other assays of this panel Not Active means under 50% inhibition at 10 µM
T1 sequence (P03372 whole entry): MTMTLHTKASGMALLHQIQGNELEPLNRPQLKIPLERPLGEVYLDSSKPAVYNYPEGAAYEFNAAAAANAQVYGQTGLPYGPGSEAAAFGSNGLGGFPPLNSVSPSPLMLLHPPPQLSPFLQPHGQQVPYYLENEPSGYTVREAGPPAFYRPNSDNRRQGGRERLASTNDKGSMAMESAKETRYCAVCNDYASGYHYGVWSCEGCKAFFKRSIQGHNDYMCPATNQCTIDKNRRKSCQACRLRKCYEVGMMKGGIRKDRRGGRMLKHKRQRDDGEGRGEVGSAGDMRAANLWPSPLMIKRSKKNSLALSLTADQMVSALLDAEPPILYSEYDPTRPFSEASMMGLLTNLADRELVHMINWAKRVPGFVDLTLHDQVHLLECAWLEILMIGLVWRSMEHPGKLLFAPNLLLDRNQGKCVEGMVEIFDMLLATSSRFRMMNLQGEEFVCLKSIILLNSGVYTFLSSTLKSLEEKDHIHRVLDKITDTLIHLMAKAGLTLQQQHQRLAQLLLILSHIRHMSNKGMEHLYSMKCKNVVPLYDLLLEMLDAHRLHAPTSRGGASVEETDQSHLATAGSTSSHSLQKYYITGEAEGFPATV

[8] = DRUGMATRIX: Potassium Channel [KATP] radioligand binding (ligand: [3H] Glyburide); assay type: cell membranes, Membrane; conditions: hit-t15; Not Active = under 50% inhibition at 10 µM
[9] = DRUGMATRIX: GABAA, Flunitrazepam, Central radioligand binding (ligand: [3H] Flunitrazepam); assay type: cell membranes, Rattus norvegicus, Wistar, Brain, Membrane; conditions: Not Active = under 50% inhibition at 10 µM
[10] = DRUGMATRIX: Serotonin (5-Hydroxytryptamine) 5-HT3 radioligand binding (ligand: [3H] GR-65630); assay type: cell membranes, Membrane; conditions: hek293; Not Active = under 50% inhibition at 10 µM

Sequence of Sodium-dependent dopamine transporter (Q01959 whole entry): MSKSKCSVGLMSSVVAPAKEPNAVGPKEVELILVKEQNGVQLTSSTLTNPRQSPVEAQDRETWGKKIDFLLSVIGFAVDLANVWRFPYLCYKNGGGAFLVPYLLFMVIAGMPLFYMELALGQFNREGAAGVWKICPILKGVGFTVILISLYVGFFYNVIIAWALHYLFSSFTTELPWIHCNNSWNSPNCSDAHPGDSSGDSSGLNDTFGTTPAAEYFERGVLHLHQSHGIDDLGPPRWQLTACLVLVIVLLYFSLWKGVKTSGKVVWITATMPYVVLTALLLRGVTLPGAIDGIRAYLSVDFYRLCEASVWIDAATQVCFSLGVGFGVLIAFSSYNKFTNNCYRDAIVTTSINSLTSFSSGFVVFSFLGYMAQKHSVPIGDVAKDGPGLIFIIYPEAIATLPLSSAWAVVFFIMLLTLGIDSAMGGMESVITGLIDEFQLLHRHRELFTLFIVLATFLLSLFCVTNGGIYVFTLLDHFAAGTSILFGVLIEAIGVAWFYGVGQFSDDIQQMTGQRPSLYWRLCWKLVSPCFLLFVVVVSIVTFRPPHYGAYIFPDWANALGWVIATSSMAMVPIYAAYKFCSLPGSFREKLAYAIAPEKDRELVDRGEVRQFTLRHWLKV

CCCCC(=O)N(Cc1ccc(-c2ccccc2-c2nnn[nH]2)cc1)[C@H](C(=O)O)C(C)C
Not Active: IC50 [1] | IC50 [2] | Ki [2] | IC50 [3] | Ki [3] | IC50 [4] | Ki [4] | IC50 [5] | Ki [5] | IC50 [6] | Ki [6] | IC50 [7] | IC50 [8] | Ki [8] | IC50 [9] | Ki [9] | IC50 [10] | Ki [10]

O=C(O)COc1ccc(C(=O)c2cccs2)c(Cl)c1Cl
Not Active: IC50 [1] | IC50 [2] | Ki [2] | IC50 [3] | Ki [3] | IC50 [4] | Ki [4] | IC50 [5] | Ki [5] | IC50 [6] | Ki [6] | IC50 [7] | IC50 [8] | Ki [8] | IC50 [9] | Ki [9] | IC50 [10] | Ki [10]

O=C(O)CCCCC1CCSS1 (stereo not drawn) [LIPOIC ACID, ALPHA]
Not Active: IC50 [1] | IC50 [2] | Ki [2] | IC50 [3] | Ki [3] | IC50 [4] | Ki [4] | IC50 [5] | Ki [5] | IC50 [6] | Ki [6] | IC50 [7] | IC50 [8] | Ki [8] | IC50 [9] | Ki [9] | IC50 [10] | Ki [10]

O=C(O)c1ccccc1O [SALICYLIC ACID]
Not Active: IC50 [1] | IC50 [2] | Ki [2] | IC50 [3] | Ki [3] | IC50 [4] | Ki [4] | IC50 [5] | Ki [5] | IC50 [6] | Ki [6] | IC50 [7] | IC50 [8] | Ki [8] | IC50 [9] | Ki [9] | IC50 [10] | Ki [10]

CC1CCC(NC(=O)N(CCCl)N=O)CC1 (configuration not stated) [SEMUSTINE]
Not Active: IC50 [1] | IC50 [2] | Ki [2] | IC50 [3] | Ki [3] | IC50 [4] | Ki [4] | IC50 [5] | Ki [5] | IC50 [6] | Ki [6] | IC50 [7] | IC50 [8] | Ki [8] | IC50 [9] | Ki [9] | IC50 [10] | Ki [10]

C[N+](C)(C)CCOC(=O)CCC(=O)OCC[N+](C)(C)C.[Cl-].[Cl-] [SUCCINYLCHOLINE CHLORIDE]
Not Active: IC50 [1] | IC50 [2] | Ki [2] | IC50 [3] | Ki [3] | IC50 [5] | Ki [5] | IC50 [6] | Ki [6] | IC50 [7] | IC50 [8] | Ki [8] | IC50 [9] | Ki [9] | IC50 [10] | Ki [10]

Nc1ccc(S(=O)(=O)NC(=O)c2ccccc2)cc1 [SULFABENZAMIDE]
Not Active: IC50 [1] | IC50 [2] | Ki [2] | IC50 [3] | Ki [3] | IC50 [4] | Ki [4] | IC50 [5] | Ki [5] | IC50 [6] | Ki [6] | IC50 [7] | IC50 [8] | Ki [8] | IC50 [9] | Ki [9] | IC50 [10] | Ki [10]

Cc1ccc(C(=O)c2ccc(CC(=O)O)n2C)cc1 [TOLMETIN]
Not Active: IC50 [1] | IC50 [2] | Ki [2] | IC50 [3] | Ki [3] | IC50 [4] | Ki [4] | IC50 [5] | Ki [5] | IC50 [6] | Ki [6] | IC50 [7] | IC50 [8] | Ki [8] | IC50 [9] | Ki [9] | IC50 [10] | Ki [10]

TRANSPLATIN
Not Active: IC50 [1] | Ki [1] | IC50 [2] | Ki [2] | IC50 [3] | Ki [3] | IC50 [4] | Ki [4] | IC50 [5] | Ki [5] | IC50 [6] | Ki [6] | IC50 [7] | Ki [7] | IC50 [8] | Ki [8] | IC50 [9] | Ki [9] | IC50 [10] | Ki [10]

ZIRCONIUM(IV) CHLORIDE
Not Active: IC50 [1] | Ki [1] | IC50 [2] | Ki [2] | IC50 [3] | Ki [3] | IC50 [4] | Ki [4] | IC50 [5] | Ki [5] | IC50 [6] | Ki [6] | IC50 [7] | Ki [7] | IC50 [8] | Ki [8] | IC50 [9] | Ki [9] | IC50 [10] | Ki [10]
